Reference: patent publication US20250049953A1, “TREATMENT AND METHOD FOR INHIBITING LATE NA CURRENT” (THE TRUSTEES OF COLUMBIA UNIVERSITY IN THE CITY OF NEW YORK, priority 2022, published 2025)
No end group written: not given here.

Experiments:
NaV1.5 IQ/AA mutant = biological target: T1, NaV1.5 IQ/AA mutant (Homo sapiens, UniProt Q14524, I1908A/Q1909A); assay: Multichannel recordings of late Na current, NaV1.5 IQ/AA mutant in HEK293 cells; format: cell-based; settings: for change in INa,L: co-expression with NaV1.5 IQ/AA in HEK293 cells
T1 construct: expressed in transfected cells; host or cells: HEK293 (ATCC CRL1573)
Text: The human NaV1.5 channel corresponds to clone M77235.1 (GenBank) and is subcloned into pGW 1 vector with HindIII and SaII. To facilitate construction of channelopathic mutations in the channel carboxy-terminus, we introduced silent mutations into NaV1.5 to introduce an NruI cutting site near the channel carboxy-terminus (5329-gtggccacg-5337 into 5329-gtCgcGacg-5337). Subsequently, we used overlap-extension PCR and ligated the PCR product into NaV1.5/pGW1 using NruI and XbaI restriction sites (mutations: E1784K, S1904L, IQ/AA, and Q1909R). For generating the ΔKPQ and IFM/IQM mutations, we used overlap-extension PCR and ligated in NaV1.5/pGW1 following restriction digest using KpnI and XbaI site. For generation of NaV1.5 truncations, we PCR amplified relevant segments using a forward primer upstream of the KpnI site and a reverse primer that truncated at the appropriate location (Δ1810 and Δ1885) and included an XbaI site and ligated into NaV1.5/pW1 vector. For LILA/WICW mutations, we used overlap extension and used restriction site AgeI and NheI for subsequent ligation. All segments subjected to PCR amplification were verified by sequencing. For generating human FHF2 splice-variants, we synthesized gene fragments and ligated into pcDNA3 using BamHI/EcoRI restriction sites. Human FHF1A and FHF1B were subcloned into ECFP-N3 vector, FHF2 splice variants and FHF3 were subcloned into pcDNA3. Truncations of the FHF1A amino-terminus (NT) were generated as fusion proteins with Venus fluorescent protein in the carboxy-terminus by encoding the relevant segments as noted in FIG. 12A in the forward PCR primer and the fluorophore as the template. Following PCR amplification, each fragment was ligated into pcDNA3 following restriction digest using NheI and XhoI enzymes. Plasmid encoding PKA catalytic subunit was constructed from pDONR222-PRKACA as described previously.
HEK293 cells (ATCC CRL1573) were cultured on glass coverslips in 60-mm dishes and transfected using the Ca^2+-phosphate method as previously described. For electrophysiology experiments, we co-transfected 4-8 μg of cDNA encoding the desired channel variant with 4 μg of YFP, and 1 μg of simian virus 40 T-antigen. For experiments evaluating effect of FHF, we transfected the relevant FHF variant at 1:1 ratio as the α-subunit. For experiments considering competition between FHF1/2 isoforms, we co-transfected FHF1B and FHF2S variants at specified ratios (ranging from 1:1 to 1:10). The culture media was replaced following 4 h of transfection. Electrophysiology recordings were then performed at room temperature 1-2 days following transfection.
Multichannel records were obtained in the on-cell configuration with either HEK293 cells or in aMVM as in our previous study. The pipette contained (in mM): 140 NaCl; 10 HEPES; 0.5 CaCl2; at 300 mOsm, adjusted with tetraethylammonium methanesulfonate; and pH 7.4 adjusted with tetraethylammonium hydroxide. To zero membrane potential, the bath contained (in mM): 132 K^+-glutamate; 5 KCl; 5 NaCl; 3 MgCl; 2 EGTA; 10 glucose; 20HEPES; at 300 mOsm adjusted with glucose; and pH 7.4 adjusted with NaOH. Data were acquired at room temperature using the integrating mode of an Axopatch 200A amplifier (Axon Instruments, Molecular Devices). Patch pipettes (3-10 MΩ) were pulled from ultra-thick-walled borosilicate glass (BF200-116-10; Sutter Instruments) using horizontal puller (P-97, Sutter Instruments), fire polished with a microforge (Narishige), and coated with Sylgard™ brand silicone elastomer (Dow Corning). Elementary currents were low-pass filtered at 2 kHz with a four-pole Bessel filter and digitized at 200 kHz with an ITC-18 unit (Instrutech), controlled by custom MATLAB software (Mathworks). For each pulse, we obtained P/8 leak pulses. Leak subtraction was performed using an automated algorithm which fit the kinetics of the leak current or the capacitive transient with convex optimization with L1 regularization. […]

late Na current = settings: cited from earlier work
[1] = system: ischemia induced arrhythmias; settings: rats; cited from earlier work
[2] = system: aMVM from non-transgenic mice; assay: Multichannel recordings of INa,L in cultured aMVM from non-transgenic mice; format: cell-based, mouse; settings: 5 μM Forskolin following shRNA-mediated silencing of FHF2
Text: As such, we sought to determine whether “protective” FHF variants may inhibit phosphorylation-dependent INa,L. To maximally upregulate INa,L, we co-expressed wild-type NaV1.5 with either (1) the catalytic Cα subunit of protein kinase A (PKA) or (2) a constitutively-active Ca^2+/CaM dependent kinase II (CaMKIIT286D) mutant in HEK293 cells. This maneuver likely triggers runaway phosphorylation of NaV1.5 and thereby furnishes a baseline to discern any potential FHF-dependent change. As expected, we observed an ˜5 fold increase in INa,L in the presence of the PKA Cα subunit (FIGS. 3D and 3E), and a 3-fold increase with CaMKIIT286D (FIGS. 3E and 11B). […] Encouraged by these findings, we dissected the functional role of this modulation in native cardiomyocytes (FIGS. 3F and 3G).
Multichannel records were obtained in the on-cell configuration with either HEK293 cells or in aMVM as in our previous study. The pipette contained (in mM): 140 NaCl; 10 HEPES; 0.5 CaCl2; at 300 mOsm, adjusted with tetraethylammonium methanesulfonate; and pH 7.4 adjusted with tetraethylammonium hydroxide. […]
Mice ventricular myocytes were isolated by enzymatic digestion using a Langendorff perfusion apparatus as previously described. […] The efficacy of viral transduction was assessed 24-48 hours post infection.

neuronal Na channels = settings: cited from earlier work
[3] = in vivo; cited from earlier work
[4] = acute animal toxicity tests; cited from earlier work
[5] = system: Ca^2+ channels and K^+ channels; settings: cited from earlier work
[6] = biological target: T2, NaV1.5 S1904L mutant channel (Homo sapiens, UniProt Q14524, S1904L); assay: Multichannel recordings of late Na current, NaV1.5 S1904L; format: cell-based
T2 construct: expressed in transfected cells; host or cells: HEK293 (ATCC CRL1573)
Description: HEK293 cells (ATCC CRL1573) were cultured on glass coverslips in 60-mm dishes and transfected using the Ca^2+-phosphate method as previously described. For electrophysiology experiments, we co-transfected 4-8 μg of cDNA encoding the desired channel variant with 4 μg of YFP, and 1 μg of simian virus 40 T-antigen. […] The culture media was replaced following 4 h of transfection. Electrophysiology recordings were then performed at room temperature 1-2 days following transfection.

[7] = biological target: NaV1.5 LILA/WICW mutant (human) (UniProt Q14524); assay: cell-based or functional assay
[8] = biological target: NaV1.5 IFM/IQM mutant (human) (UniProt Q14524); assay: cell-based or functional assay
[9] = biological target: NaV1.5 IQ/AA mutant (human) (UniProt Q14524); assay: cell-based or functional assay
[10] = incubation with 10 μM ranolazine

Molecule: 1-18: FHF1A amino-terminal truncation peptide, residues 1-18, Venus fusion (MAAAIASSLIRQKRQARE; also: Venus fusion, end not given here; UniProt P61328 1-18, looked up, fragment)
- change in INa,L (NaV1.5 IQ/AA mutant): increase late channel openings

Molecule: 9-32: FHF1A amino-terminal truncation peptide, residues 9-32, Venus fusion (LIRQKRQARESNSDRVSASKRRSS; also: Venus fusion, end not given here; UniProt P61328 9-32, looked up, fragment)
- change in INa,L (NaV1.5 IQ/AA mutant): increase late channel openings

Molecule: 12-17: FHF1A amino-terminal truncation peptide, residues 12-17, Venus fusion (QKRQAR; also: Venus fusion, end not given here; UniProt P61328 12-17, looked up, fragment)
- change in INa,L (NaV1.5 IQ/AA mutant): increase late channel openings

Molecule: 18-39: FHF1A amino-terminal truncation peptide, residues 18-39, Venus fusion (ESNSDRVSASKRRSSPSKDGRS; also: Venus fusion, end not given here; UniProt P61328 18-39, looked up, fragment)
- change in INa,L (NaV1.5 IQ/AA mutant): increase late channel openings

Molecule: COc1ccccc1SC[C@@H](C)CN[C@@H]1COc2ccccc2SC1 [F15845]
- potency/efficacy for blocking late Na current (late Na current): very high efficacy
- effect on ischemia induced arrhythmias [1]: prevented ischemia induced arrhythmias

Molecule: C=C[C@@]1(C)CC(=O)[C@]2(O)[C@@]3(C)[C@@H](O)CCC(C)(C)[C@@H]3[C@H](O)[C@H](OC(C)=O)[C@@]2(C)O1 [Forskolin]
- increase in INa,L [2]: 20 fold

Molecule: FC(F)(F)Oc1ccc(-c2ccc3nnc(C(F)(F)F)n3c2)cc1 [GS-458967]
- block of neuronal Na channels (neuronal Na channels): use-dependent block
- potency/efficacy for blocking late Na current (late Na current): high efficacy
- brain penetration [3]: high brain penetration

Molecule: Cc1noc(Cn2nc3ccc(-c4ccc(OC(F)(F)F)cc4)cn3c2=O)n1 [GS-462808]
- liver findings [4]: caused liver lesions

Molecule: COc1ccccc1OCC(O)CN1CCN(CC(=O)Nc2c(C)cccc2C)CC1 (stereo not drawn) [ranolazine]
- potency/efficacy for blocking late Na current (late Na current): suboptimal potency
- reduction in INa,L (NaV1.5 IQ/AA mutant; [10]): 3 fold
- inhibition of INa,L (NaV1.5 IQ/AA mutant; ranolazine, FIG. 13G): modest inhibition
- interactions with other ionic currents [5]: non-selectivity interactions with other ionic currents
- reduction in INa,L [6, 10]: 3 fold
- inhibition of INa,L ([6]; ranolazine, FIG. 13I): inhibits INa,L

Molecule: FHF1A (human fibroblast growth factor homologous factor 1, splice variant A) (from UniProt P61328 1-243)
- time constant of the excess inactivation (single-exponential decay) [7]: 12.3 ms
- time constant of the excess inactivation (single-exponential decay) [8]: 17.8 ms

Molecule: FHF1B (human) (from UniProt P61328 1-181)
- INa,L (Rpersist), multichannel recordings in HEK293 cells [9]: 4 fold
- INa,L, multichannel recordings in HEK293 cells [9]: 3 fold
- Rpersist against the ratio of FHF1B to FHF2S cDNA (ρ), half-maximal effect (ratio of FHF1B to FHF2S cDNA) [9]: 0.4

Molecule: FixR (FHF-inhibiting-X-region), FHF1A amino-terminal residues 1-39, expressed as a Venus fusion (peptide)
- fold reduction in INa,L (FIG. 5C) [9]: 10 to 15 fold

B1: FHF1A amino terminus: entire FHF1A amino terminus expressed as a peptide (peptide)
peptide: MAAAIASSLIRQKRQARESNSDRVSASKRRSSPSKDGRSLCERHVLGVFSKVRFCSGRKRPVRRRP
modifications: left off: large carriers
notes: entire FHF1A amino terminus expressed as a peptide
- change in INa,L (NaV1.5 IQ/AA mutant): strongly inhibited
